Source: publication PMC12251549, “Engineering a Radiohybrid PSMA Ligand with an Albumin-Binding Moiety and Pharmacokinetic Modulation via an Albumin-Binding Competitor for Radiotheranostics” (Molecules, 2025)

Columns and labels:
[1] = test system: PSMA-expressing LNCaP cells; assay: Cellular uptake and internalization in LNCaP cells, blocking with 2-PMPA; assay type: cell-based; conditions: 2-PMPA 100 µM
Procedure: Cellular uptake experiments were performed according to a previous report with slight modifications. LNCaP cells expressing PSMA were cultured in RPMI 1640 medium containing 10% fetal bovine serum (FBS) and 1% penicillin–streptomycin on 6-well culture plates (containing 5 × 10^5 cells/well) for 24 h in a humidified atmosphere (5% CO2) incubator at 37 °C. After removing the medium and washing with phosphate-buffered saline (PBS) (−) once, a mixed solution of [^125I]5 and [^211At]6, [^125I]5 and [^67Ga]Ga-PSMA-617, and [^125I]5 and [^67Ga]5 in 1.0 mL of medium without FBS was added (3.7 kBq/each tracer/well). The final concentrations of the radioligands for [^125I]5, [^211At]6, and [^67Ga]5 were 45.5 pM, 0.2 pM, and 2.5 pM, respectively. These solutions containing radioligands were diluted in saline containing 0.05% (w/v) bovine serum albumin (BSA) to prevent adsorption to tubes or plates and further diluted with medium to 0.00125% as the final BSA concentration. After incubation for 10, 60, and 120 min, the medium from each well was removed, and the cells were washed twice with ice-cold PBS (−); the surface of the cells was washed twice with ice-cold 0.2 M glycine buffer (pH 3.0). The cells were lysed using a 1 M NaOH aqueous solution. The radioactivity of ^67Ga,^125I and ^211At in the 1 M NaOH aqueous solution was determined and defined as the internalized radioligand fraction using an auto well gamma counter (ARC-8001, Hitachi, Ltd., Tokyo, Japan) according to a previous paper. The radioactivity was determined with an auto well gamma counter and corrected for background radiation and physical decay during counting. A window from 16 to 69 keV was used for counting ^125I, and a window from 70 to 120 keV was used for counting ^211At. Correlation factors to eliminate any crossover of ^125I activity in the ^211At counts were determined by measuring the ^125I standard in each window. More than one week after the experiments, the radioactivity counts of ^125I were measured after the decay of ^211At. The protein amount in cells was quantified using a BCA Protein Assay Kit (Nacalai Tesque, Kyoto, Japan) according to the manufacturer’s protocol. All data were expressed as percent dose per milligram protein (%dose/mg protein). In blocking experiments, a selective inhibitor of the PSMA, (2S)-2-(phosphonomethyl)pentanedioic acid (2-PMPA) (final concentration 100 µM), was added to each well with tracers. After incubation for 10, 60, and 120 min, radioactivity and protein concentration were determined in the same manner as the experiment without the blocking agent.

[2] = Biodistribution after intravenous co-injection of [125I]5 and [211At]6 (Table S2); assay type: in vivo, normal mice (ddY); conditions: normal mice
Procedure: [^67Ga]Ga-PSMA-617 (37 kBq) and [^125I]5 (37 kBq) or [^125I]5 (37 kBq) and [^211At]6 (37 kBq) were intravenously co-administered into three or four normal mice at each timepoint (6 weeks male ddY mice, 28–30 g, Japan SLC, Inc., Hamamatsu, Japan). Mice were sacrificed at 10 min, 1 h, 4 h, and 24 h ([^67Ga]Ga-PSMA-617 and [^125I]5) or at 10 min, 1 h, 4 h, 12 h, and 24 h ([^125I]5 and [^211At]6) postinjection of the radiolabeled compounds. Tissues of interest were removed and weighed, and the radioactivity of ^67Ga and ^125I and ^125I and ^211At were determined with an auto well gamma counter (ARC-8001) and corrected for background radiation as described in the Cellular Uptake Experiments Section. To determine the amount and routes of the radioactivity excreted from the body for 24 h after the injection of radiolabeled compounds, mice were housed in metabolic cages (METABOLICA, SUGIYAMA-GEN Co., Ltd., Tokyo, Japan). Data are shown as the percentage of injected dose per gram of tissues (%ID/g) or %ID.

[3] = In vitro stability test in 0.1 M phosphate buffer; assay type: physicochemical; conditions: 0.1 M PB solution containing 10% ethanol, 37 °C, 24 h, mean ± SD for three samples
Procedure: samples were analyzed by RP-HPLC using a Cosmosil 5C18-AR-II (4.6 × 150 mm) at a flow rate of 1 mL/min with a gradient mobile phase of 60% methanol in water with 0.1% trifluoroacetic acid (TFA) to 80% methanol in water with 0.1% TFA for 20 min.
In vitro stability test in 0.1 M PB solution containing 10% ethanol was performed. The […]
and 97.1 ± 0.9% (mean ± SD for three samples) after incubating at 37 °C for 24 h, […]

[4] = Biodistribution with post-administration of albumin-binding competitor IPBA; assay type: in vivo, normal mice (ddY); conditions: normal mice, IPBA at 1 h postinjection, 10 molar equivalent of blood albumin; except in the kidney
Procedure: To evaluate the effects of an albumin-binding competitor (sodium salt of IPBA) in normal mice, [^125I]5 and [^211At]6 were intravenously co-administered. At 1 h postinjection of the radiolabeled compounds, IPBA (3.4 mg, 11 µmol) dissolved in saline at a 10 molar equivalent of blood albumin was administered. Mice were sacrificed at 65 min, 70 min, 2 h, 4 h, 12 h, and 24 h postinjection of [^125I]5 and [^211At]6. Tissues of interest were treated, and the radioactivity was measured in the same manner as above. Data are also shown as %ID/g or %ID.

In vivo dehalogenation (radioactivity in stomach and neck) [2]: minimal deiodination or deastatination
Biodistribution of radioactivity: Blood ([2]; i.v., 10 min after injection): 26.93 (0.47) % injected dose per gram
Biodistribution of radioactivity: Bone ([2]; i.v., 10 min after injection): 2.74 (0.53) % injected dose per gram
Biodistribution of radioactivity: Brain ([2]; i.v., 10 min after injection): 0.53 (0.06) % injected dose per gram
Biodistribution of radioactivity: Heart ([2]; i.v., 10 min after injection): 4.66 (0.37) % injected dose per gram
Biodistribution of radioactivity: Kidney ([2]; i.v., 10 min after injection): 5.19 (0.64) % injected dose per gram
Biodistribution of radioactivity: L. Intestine ([2]; i.v., 10 min after injection): 0.78 (0.05) % injected dose per gram
Biodistribution of radioactivity: Liver ([2]; i.v., 10 min after injection): 3.61 (0.05) % injected dose per gram
Biodistribution of radioactivity: Lung ([2]; i.v., 10 min after injection): 15.25 (2.29) % injected dose per gram
Biodistribution of radioactivity: Muscle ([2]; i.v., 10 min after injection): 0.99 (0.14) % injected dose per gram
Biodistribution of radioactivity: Neck ([2]; i.v., 10 min after injection): 0.04 (0.01) % injected dose
Biodistribution of radioactivity: Pancreas ([2]; i.v., 10 min after injection): 2.59 (0.24) % injected dose per gram
Biodistribution of radioactivity: S. Intestine ([2]; i.v., 10 min after injection): 1.42 (0.15) % injected dose per gram
Biodistribution of radioactivity: Spleen ([2]; i.v., 10 min after injection): 2.56 (0.44) % injected dose per gram
Biodistribution of radioactivity: Stomach ([2]; i.v., 10 min after injection): 0.85 (0.07) % injected dose
Biodistribution of radioactivity: Blood ([2]; i.v., 1 h after injection): 17.94 (1.58) % injected dose per gram
Biodistribution of radioactivity: Bone ([2]; i.v., 1 h after injection): 1.92 (0.21) % injected dose per gram
Biodistribution of radioactivity: Brain ([2]; i.v., 1 h after injection): 0.38 (0.12) % injected dose per gram
Biodistribution of radioactivity: Heart ([2]; i.v., 1 h after injection): 4.88 (0.26) % injected dose per gram
Biodistribution of radioactivity: Kidney ([2]; i.v., 1 h after injection): 4.36 (0.53) % injected dose per gram
Biodistribution of radioactivity: L. Intestine ([2]; i.v., 1 h after injection): 0.93 (0.15) % injected dose per gram
Biodistribution of radioactivity: Liver ([2]; i.v., 1 h after injection): 2.54 (0.38) % injected dose per gram
Biodistribution of radioactivity: Lung ([2]; i.v., 1 h after injection): 10.21 (2.55) % injected dose per gram
Biodistribution of radioactivity: Muscle ([2]; i.v., 1 h after injection): 1.25 (0.10) % injected dose per gram
Biodistribution of radioactivity: Neck ([2]; i.v., 1 h after injection): 0.04 (0.01) % injected dose
Biodistribution of radioactivity: Pancreas ([2]; i.v., 1 h after injection): 2.07 (0.45) % injected dose per gram
Biodistribution of radioactivity: S. Intestine ([2]; i.v., 1 h after injection): 1.59 (0.31) % injected dose per gram
Biodistribution of radioactivity: Spleen ([2]; i.v., 1 h after injection): 1.77 (0.11) % injected dose per gram
Biodistribution of radioactivity: Stomach ([2]; i.v., 1 h after injection): 0.84 (0.27) % injected dose
Biodistribution of radioactivity: Blood ([2]; i.v., 4 h after injection): 13.40 (1.08) % injected dose per gram
Biodistribution of radioactivity: Bone ([2]; i.v., 4 h after injection): 1.59 (0.09) % injected dose per gram
Biodistribution of radioactivity: Brain ([2]; i.v., 4 h after injection): 0.32 (0.06) % injected dose per gram
Biodistribution of radioactivity: Heart ([2]; i.v., 4 h after injection): 4.31 (0.39) % injected dose per gram
Biodistribution of radioactivity: Kidney ([2]; i.v., 4 h after injection): 4.44 (0.25) % injected dose per gram
Biodistribution of radioactivity: L. Intestine ([2]; i.v., 4 h after injection): 1.15 (0.35) % injected dose per gram
Biodistribution of radioactivity: Liver ([2]; i.v., 4 h after injection): 1.55 (0.24) % injected dose per gram
Biodistribution of radioactivity: Lung ([2]; i.v., 4 h after injection): 7.81 (1.92) % injected dose per gram
Biodistribution of radioactivity: Muscle ([2]; i.v., 4 h after injection): 1.27 (0.08) % injected dose per gram
Biodistribution of radioactivity: Neck ([2]; i.v., 4 h after injection): 0.04 (0.01) % injected dose
Biodistribution of radioactivity: Pancreas ([2]; i.v., 4 h after injection): 1.76 (0.35) % injected dose per gram
Biodistribution of radioactivity: S. Intestine ([2]; i.v., 4 h after injection): 1.30 (0.19) % injected dose per gram
Biodistribution of radioactivity: Spleen ([2]; i.v., 4 h after injection): 1.60 (0.25) % injected dose per gram
Biodistribution of radioactivity: Stomach ([2]; i.v., 4 h after injection): 0.83 (0.18) % injected dose
Biodistribution of radioactivity: Blood ([2]; i.v., 12 h after injection): 12.23 (1.51) % injected dose per gram
Biodistribution of radioactivity: Bone ([2]; i.v., 12 h after injection): 1.91 (0.32) % injected dose per gram
Biodistribution of radioactivity: Brain ([2]; i.v., 12 h after injection): 0.42 (0.07) % injected dose per gram
Biodistribution of radioactivity: Heart ([2]; i.v., 12 h after injection): 3.83 (0.57) % injected dose per gram
Biodistribution of radioactivity: Kidney ([2]; i.v., 12 h after injection): 5.31 (0.31) % injected dose per gram
Biodistribution of radioactivity: L. Intestine ([2]; i.v., 12 h after injection): 0.79 (0.16) % injected dose per gram
Biodistribution of radioactivity: Liver ([2]; i.v., 12 h after injection): 1.58 (0.12) % injected dose per gram
Biodistribution of radioactivity: Lung ([2]; i.v., 12 h after injection): 7.79 (0.46) % injected dose per gram
Biodistribution of radioactivity: Muscle ([2]; i.v., 12 h after injection): 1.37 (0.10) % injected dose per gram
Biodistribution of radioactivity: Neck ([2]; i.v., 12 h after injection): 0.18 (0.06) % injected dose
Biodistribution of radioactivity: Pancreas ([2]; i.v., 12 h after injection): 1.44 (0.82) % injected dose per gram
Biodistribution of radioactivity: S. Intestine ([2]; i.v., 12 h after injection): 1.06 (0.11) % injected dose per gram
Biodistribution of radioactivity: Spleen ([2]; i.v., 12 h after injection): 1.71 (0.33) % injected dose per gram
Biodistribution of radioactivity: Stomach ([2]; i.v., 12 h after injection): 1.04 (0.11) % injected dose
Biodistribution of radioactivity: Blood ([2]; i.v., 24 h after injection): 10.45 (0.19) % injected dose per gram
Biodistribution of radioactivity: Bone ([2]; i.v., 24 h after injection): 1.56 (0.33) % injected dose per gram
Biodistribution of radioactivity: Brain ([2]; i.v., 24 h after injection): 0.43 (0.14) % injected dose per gram
Biodistribution of radioactivity: Heart ([2]; i.v., 24 h after injection): 4.06 (1.41) % injected dose per gram
Biodistribution of radioactivity: Kidney ([2]; i.v., 24 h after injection): 3.50 (0.24) % injected dose per gram
Biodistribution of radioactivity: L. Intestine ([2]; i.v., 24 h after injection): 0.62 (0.15) % injected dose per gram
Biodistribution of radioactivity: Liver ([2]; i.v., 24 h after injection): 1.43 (0.07) % injected dose per gram
Biodistribution of radioactivity: Lung ([2]; i.v., 24 h after injection): 5.77 (0.84) % injected dose per gram
Biodistribution of radioactivity: Muscle ([2]; i.v., 24 h after injection): 1.28 (0.09) % injected dose per gram
Biodistribution of radioactivity: Neck ([2]; i.v., 24 h after injection): 0.14 (0.06) % injected dose
Biodistribution of radioactivity: Pancreas ([2]; i.v., 24 h after injection): 1.61 (0.22) % injected dose per gram
Biodistribution of radioactivity: S. Intestine ([2]; i.v., 24 h after injection): 0.81 (0.05) % injected dose per gram
Biodistribution of radioactivity: Spleen ([2]; i.v., 24 h after injection): 1.33 (0.43) % injected dose per gram
Biodistribution of radioactivity: Stomach ([2]; i.v., 24 h after injection): 1.31 (0.10) % injected dose
Biodistribution of radioactivity: Feces ([2]; i.v., excreted for 24 h after injection (column not printed safely), Table S2): 2.00 (0.33) % injected dose
Blood retention ([2]; profile resembled that of [125I]5): prolonged blood retention
Radiochemical purity after incubation (in vitro stability) [3]: 97.1 ± 0.9%
Effect of IPBA administration on radioactivity levels in tissues [4]: significantly decreased
SMILES: O=C([O-])CN1CCN(CC(=O)[O-])CCN(CC(=O)NC(CCCCNC(=O)CCCc2ccc([211At])cc2)C(=O)NCC2CCC(C(=O)NC(Cc3ccc4ccccc4c3)C(=O)NCCCCC(NC(=O)NC(CCC(=O)O)C(=O)O)C(=O)O)CC2)CCN(CC(=O)[O-])CC1.[Ga+3] (stereo not shown) [[^211At]6]
Effect of excess 2-PMPA on cellular uptake [1]: significantly reduced
